{
  "source": "patent US20080280937A1",
  "about": "“Ligand Conjugates of Vinca Alkaloids, Analogs, and Derivatives” (priority 2005, published 2008)",
  "key": {"[1]": {"test": "Animal Weight Determination", "conditions": "for weight of Balb/c mice: 3 μmol/kg TIW for 3 weeks (FIG. 25B); for Weight Loss: nu/nu mice with KB tumors"}, "folate receptors (FRs)": {"molecular_target": "T1, folate receptors (FRs) (Homo sapiens, UniProt P15328)", "T1 construct": "FR-positive KB cells were heavily seeded into 24-well cell culture plates; endogenous in cells; host or cells: KB cells", "T1 sequence (P15328 25-234)": "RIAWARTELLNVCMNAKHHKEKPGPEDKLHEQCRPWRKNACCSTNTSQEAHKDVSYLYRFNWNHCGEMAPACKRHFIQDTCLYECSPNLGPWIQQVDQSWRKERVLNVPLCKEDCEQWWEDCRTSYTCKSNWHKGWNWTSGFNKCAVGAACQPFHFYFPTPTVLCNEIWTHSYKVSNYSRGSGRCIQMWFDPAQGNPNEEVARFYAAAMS", "test": "Relative Affinity Assay (displacement of 3H-folic acid on FR-positive KB cells)", "assay_type": "binding", "conditions": "for relative binding affinity versus folic acid at folic acid receptors: figure legends, folic acid = 1.0, 1 hour at 37° C; for Relative Folate Receptor Affinity: summary table", "procedure": "Relative Affinity Assay. The affinity of the compounds described herein for folate receptors (FRs) relative to folate was determined according to a previously described method (Westerhof, G. R., J. H. Schornagel, et al. (1995) Mol. Pharm. 48: 459-471) with slight modification. Briefly, FR-positive KB cells were heavily seeded into 24-well cell culture plates and allowed to adhere to the plastic for 18 h. Spent incubation media was replaced in designated wells with folate-free RPMI (FFRPMI) supplemented with 100 nM ^3H-folic acid in the absence and presence of increasing concentrations of test article or folic acid. Cells were incubated for 60 min at 37° C. and then rinsed 3 times with PBS, pH 7.4, followed by the addition of 500 μL of 1% SDS in PBS, pH 7.4. Cell lysates were then collected and added to individual vials containing 5 mL of scintillation cocktail, and then counted for radioactivity. Negative control tubes contained only the ^3H-folic acid in FFRPMI (no competitor). Positive control tubes contained a final concentration of 1 mM folic acid, and CPMs measured in these samples (representing non-specific binding of label) were subtracted from all samples."}, "KB tumors": {"tested_on": "KB tumors", "assay_type": "in vivo, nu/nu mice", "conditions": "for % T/C / LCK (log of cell kill): animals not showing complete response", "procedure": "Inhibition of Tumor Growth in Mice. The anti-tumor activity of the compounds described herein, when administered intravenously (i.v.) to tumor-bearing animals, was evaluated in nu/nu mice bearing subcutaneous KB tumors. Approximately 8 to 11 days post tumor inoculation in the subcutis of the right axilla with 1×10^6 KB cells (tumor volume range at t0=between 60 and 80 mm^3), mice (5/group) were injected i.v. three times a week (TIW), for a defined length of time (e.g., 2-3 weeks) with (a) a defined dose level on a per kilogram body weight basis of a drug delivery conjugate described herein, or (b) an equivalent dose volume of PBS (control). Tumor growth was measured using calipers at 2-day or 3-day intervals in each treatment group. Tumor volumes were calculated using the equation V=a×b^2/2, where “a” is the length of the tumor and “b” is the width expressed in millimeters."}, "[2]": {"tested_on": "folate receptor-positive KB cells", "assay_type": "cell-based, human", "conditions": "for competition by excess folic acid of effect on 3H-thymidine incorporation: with versus without at least 100-fold excess of folic acid", "procedure": "Inhibition of Cellular DNA Synthesis. The compounds described herein were evaluated using an in vitro cytotoxicity assay that predicts the ability of the drug to inhibit the growth of folate receptor-positive KB cells. The compounds were comprised of folate linked to a respective chemotherapeutic drug, as prepared according to the protocols described herein. The KB cells were exposed for predetermined periods of time at 37° C. to the indicated concentrations of folate-drug conjugate in the absence or presence of at least a 100-fold excess of folic acid. The cells were then rinsed with fresh culture medium and incubated in fresh culture medium for 72 hours at 37° C. Cell viability was assessed using a ^3H-thymidine incorporation assay."}, "[3]": {"conditions": "KB cells, without excess folic acid, read-out: IC50, 3H-thymidine incorporation in KB cells"}},
  "note": "Several values for one entry are separate records, joined by “and”; a condition that tells them apart may be missing. Equal entries are not always repeated. Entries after “also recorded” stand apart in the source; their conditions may differ. Where two headings read alike, the source gives them in different places. Marks after values point to notes of the source that are not given here.",
  "data": [
    {"molecule": "CC[C@]1(O)C[C@H]2CN(CCc3c([nH]c4ccccc34)[C@@](C(=O)OC)(c3cc4c(cc3OC)N(C)[C@H]3[C@@](O)(C(=O)NNC(=O)OCCSSC[C@H](NC(=O)[C@H](CC(=O)O)NC(=O)[C@H](CC(=O)O)NC(=O)[C@H](CCCNC(=N)N)NC(=O)[C@H](CC(=O)O)NC(=O)[C@H](CCC(=O)O)NC(=O)c5ccc(NCc6cnc7nc(N)[nH]c(=O)c7n6)cc5)C(=O)O)[C@H](O)[C@]5(CC)C=CCN6CC[C@]43[C@@H]65)C2)C1", "note": "[Example 11]", "values": [
      {"measurement": "weight of nu/nu mice", "setting": "[1]; 2 μmol/kg TIW for 3 weeks (FIG. 26B)", "value": "little effect on the weight of the mice; also recorded: absence of an effect"}
    ]},
    {"molecule": "CC[C@]1(O)C[C@H]2CN(CCc3c([nH]c4ccccc34)[C@@](C(=O)OC)(c3cc4c(cc3OC)N(C)[C@H]3[C@@](O)(C(=O)NCCOC(=O)OCCSSC[C@H](NC(=O)[C@H](CC(=O)O)NC(=O)[C@H](CCCNC(=N)N)NC(=O)[C@H](CC(=O)O)NC(=O)CC[C@H](NC(=O)c5ccc(NCc6cnc7nc(N)[nH]c(=O)c7n6)cc5)C(=O)O)C(=O)O)[C@H](O)[C@]5(CC)C=CCN6CC[C@]43[C@@H]65)C2)C1", "note": "[Example 22]", "values": [
      {"measurement": "relative binding affinity versus folic acid at folic acid receptors", "setting": "folate receptors (FRs)", "value": 0.26},
      {"measurement": "weight of Balb/c mice", "setting": "[1]", "value": "little effect on the weight of the mice; also recorded: absence of an effect"}
    ]},
    {"molecule": "CC[C@]1(O)C[C@@H]2CN(CCc3c([nH]c4ccccc34)[C@@](C(=O)OC)(c3cc4c(cc3OC)N(C)[C@H]3[C@@](O)(C(=O)NN)[C@H](O)[C@]5(CC)C=CCN6CC[C@]43[C@@H]65)C2)C1", "note": "[DAVLBH, desacetylvinblastine hydrazide]", "values": [
      {"measurement": "CR (animals of 5 showing a complete response)", "setting": "KB tumors; 0.5 μmol/kg TIW 2 wk", "value": "0/5"},
      {"measurement": "% T/C", "setting": "KB tumors; 0.5 μmol/kg TIW 2 wk", "value": 146, "unit": "%"},
      {"measurement": "LCK (log of cell kill)", "setting": "KB tumors; 0.5 μmol/kg TIW 2 wk", "value": 0.6},
      {"measurement": "CR (animals of 5 showing a complete response)", "setting": "KB tumors; 0.75 μmol/kg TIW 2 wk", "value": "0/5"},
      {"measurement": "% T/C", "setting": "KB tumors; 0.75 μmol/kg TIW 2 wk", "value": 265, "unit": "%"},
      {"measurement": "LCK (log of cell kill)", "setting": "KB tumors; 0.75 μmol/kg TIW 2 wk", "value": 1.8},
      {"measurement": "CR (animals of 5 showing a complete response)", "setting": "KB tumors; 1 μmol/kg TIW 2 wk", "value": "0/5"},
      {"measurement": "% T/C", "setting": "KB tumors; 1 μmol/kg TIW 2 wk", "value": 246, "unit": "%"},
      {"measurement": "LCK (log of cell kill)", "setting": "KB tumors; 1 μmol/kg TIW 2 wk", "value": 1.8},
      {"measurement": "CR (animals of 5 showing a complete response)", "setting": "KB tumors; 2 μmol/kg TIW 2 wk", "value": "0/5^(d)"},
      {"measurement": "deaths", "setting": "KB tumors; 2 μmol/kg TIW 2 wk, 5 animals", "value": "^(d)5 deaths."},
      {"measurement": "Weight Loss", "setting": "[1]; 0.5 μmol/kg TIW 2 wk", "value": 0, "unit": "%"},
      {"measurement": "Weight Loss", "setting": "[1]; 0.75 μmol/kg TIW 2 wk", "value": 0, "unit": "%"},
      {"measurement": "Weight Loss", "setting": "[1]; 1 μmol/kg TIW 2 wk", "value": ">10", "unit": "%"},
      {"measurement": "Weight Loss", "setting": "[1]; 2 μmol/kg TIW 2 wk", "value": ">20", "unit": "%"}
    ]},
    {"molecule": "Nc1nc2ncc(CNc3ccc(C(=O)N[C@H](CCC(=O)NC[C@H](N)C(=O)N[C@@H](CC(=O)O)C(=O)N[C@@H](CS)C(=O)O)C(=O)O)cc3)nc2c(=O)[nH]1", "note": "[EC20]", "values": [
      {"measurement": "competition with Example 7 at folate receptors", "setting": "KB tumors; 40 μmol/kg EC20 (rhenium complex) with 2 μmol/kg Example 7", "value": "acts as a competitor of Example 7 at folate receptors"}
    ]},
    {"molecule": "CC[C@]1(O)C[C@H]2CN(CCc3c([nH]c4ccccc34)[C@@](C(=O)OC)(c3cc4c(cc3OC)N(C)[C@H]3[C@@](O)(C(=O)NNC(=O)OCCSSC[C@H](NC(=O)c5ccc(NCc6cnc7nc(N)[nH]c(=O)c7n6)cc5)C(=O)O)[C@H](O)[C@]5(CC)C=CCN6CC[C@]43[C@@H]65)C2)C1", "note": "[Example 19]", "values": [
      {"measurement": "relative binding affinity versus folic acid at folic acid receptors", "setting": "folate receptors (FRs)", "value": 0.046},
      {"measurement": "Relative Folate Receptor Affinity", "setting": "folate receptors (FRs)", "value": 0.05},
      {"measurement": "Folate Receptor Competition", "setting": "[2]; summary table", "value": "Yes"},
      {"measurement": "competition by excess folic acid of effect on 3H-thymidine incorporation", "setting": "[2]", "value": "folate competes"}
    ]},
    {"molecule": "CC[C@]1(O)C[C@H]2CN(CCc3c([nH]c4ccccc34)[C@@](C(=O)OC)(c3cc4c(cc3OC)N(C)[C@H]3[C@@](O)(C(=O)NNC(=O)OCCSSC[C@H](NC(=O)[C@H](CN)NC(=O)[C@H](CC(=O)O)NC(=O)[C@H](CC(=O)O)NC(=O)[C@H](CC(=O)O)NC(=O)CC[C@H](NC(=O)c5ccc(NCc6cnc7nc(N)[nH]c(=O)c7n6)cc5)C(=O)O)C(=O)O)[C@H](O)[C@]5(CC)C=CCN6CC[C@]43[C@@H]65)C2)C1", "note": "[Example 10]", "values": [
      {"measurement": "relative binding affinity versus folic acid at folic acid receptors", "setting": "folate receptors (FRs)", "value": 0.24},
      {"measurement": "IC50", "setting": "[2]; [3]", "value": "58 nM and ~58 nM"},
      {"measurement": "competition by excess folic acid of effect on 3H-thymidine incorporation", "setting": "[2]", "value": "folate competes"}
    ]},
    {"molecule": "CC[C@]1(O)C[C@H]2CN(CCc3c([nH]c4ccccc34)[C@@](C(=O)OC)(c3cc4c(cc3OC)N(C)[C@H]3[C@@](O)(C(=O)NNC(=O)OCCSSC[C@H](NC(=O)CC[C@H](NC(=O)c5ccc(NCc6cnc7nc(N)[nH]c(=O)c7n6)cc5)C(=O)O)C(=O)O)[C@H](O)[C@]5(CC)C=CCN6CC[C@]43[C@@H]65)C2)C1", "note": "[Example 18]", "values": [
      {"measurement": "relative binding affinity versus folic acid at folic acid receptors", "setting": "folate receptors (FRs)", "value": 0.13},
      {"measurement": "Relative Folate Receptor Affinity", "setting": "folate receptors (FRs)", "value": 0.13},
      {"measurement": "Folate Receptor Competition", "setting": "[2]; summary table", "value": "Yes"},
      {"measurement": "competition by excess folic acid of effect on 3H-thymidine incorporation", "setting": "[2]", "value": "folate competes"}
    ]},
    {"molecule": "CC[C@]1(O)C[C@H]2CN(CCc3c([nH]c4ccccc34)[C@@](C(=O)OC)(c3cc4c(cc3OC)N(C)[C@H]3[C@@](O)(C(=O)NNC(=O)OCCSSC[C@H](NC(=O)[C@H](CC(=O)O)NC(=O)[C@H](CC(=O)O)NC(=O)[C@H](CCCNC(=N)N)NC(=O)[C@H](CC(=O)O)NC(=O)CC[C@H](NC(=O)c5ccc(NCc6cnc7nc(N)[nH]c(=O)c7n6)cc5)C(=O)O)C(=O)O)[C@H](O)[C@]5(CC)C=CCN6CC[C@]43[C@@H]65)C2)C1", "note": "[Example 7]", "values": [
      {"measurement": "Relative Folate Receptor Affinity", "setting": "folate receptors (FRs)", "value": 0.17},
      {"measurement": "IC50", "setting": "[2]; [3]", "value": "9 nM and ~16 nM"},
      {"measurement": "IC50", "setting": "[2]; summary table, read-out: IC50 KB Cells", "value": "< 100", "unit": "nM"}
    ]},
    {"molecule": "Nc1nc2ncc(CNc3ccc(C(=O)N[C@@H](CCC(=O)O)C(=O)O)cc3)nc2c(=O)[nH]1", "note": "[folic acid, reference compound]", "values": [
      {"measurement": "relative binding affinity versus folic acid at folic acid receptors", "setting": "folate receptors (FRs)", "value": 1.0}
    ]},
    {"molecule": "CC[C@]1(O)C[C@H]2CN(CCc3c([nH]c4ccccc34)[C@@](C(=O)OC)(c3cc4c(cc3OC)N(C)[C@H]3[C@@](O)(C(=O)NNC(=O)OCCSSC[C@H](NC(=O)[C@H](CC(=O)O)NC(=O)[C@H](CC(=O)O)NC(=O)[C@H](CC(=O)O)NC(=O)[C@H](CC(=O)O)NC(=O)CC[C@H](NC(=O)c5ccc(NCc6cnc7nc(N)[nH]c(=O)c7n6)cc5)C(=O)O)C(=O)O)[C@H](O)[C@]5(CC)C=CCN6CC[C@]43[C@@H]65)C2)C1", "note": "[Example 21]", "values": [
      {"measurement": "relative binding affinity versus folic acid at folic acid receptors", "setting": "folate receptors (FRs)", "value": 0.16},
      {"measurement": "weight of Balb/c mice", "setting": "[1]", "value": "little effect on the weight of the mice; also recorded: absence of an effect"}
    ]}
  ]
}
